Experimental data published in ChEMBL document CHEMBL1201862, “PubChem BioAssay data set” (2004).
Active and inactive are the calls of the source.

What was measured:
[1] = molecular target: T1, fMet-Leu-Phe receptor (Homo sapiens, UniProt P21462); assay: FPR ligands, dose response (AID 519); assay type: functional
T1 sequence (P21462 whole entry): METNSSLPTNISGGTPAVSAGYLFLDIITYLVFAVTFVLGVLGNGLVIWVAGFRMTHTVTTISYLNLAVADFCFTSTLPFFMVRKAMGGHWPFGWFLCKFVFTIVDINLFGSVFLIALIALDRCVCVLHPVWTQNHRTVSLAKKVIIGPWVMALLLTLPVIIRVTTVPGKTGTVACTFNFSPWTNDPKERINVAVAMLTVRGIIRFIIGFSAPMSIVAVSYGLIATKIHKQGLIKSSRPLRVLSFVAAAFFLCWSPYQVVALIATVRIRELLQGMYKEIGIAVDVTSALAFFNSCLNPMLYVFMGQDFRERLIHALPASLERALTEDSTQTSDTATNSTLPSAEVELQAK

[2] = cells
[3] = inhibitors of intracellular T. cruzi replication, confirmation, NIH3T3 host cells, beta-gal luminescence (AID 2044); assay type: functional, cell-based;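 further: intracellular parasites grown in NIH/3T3 mouse fibroblasts as host cells; luminescent beta-galactosidase reporter signal from transgenic T. cruzi replicating inside host cells; inhibitors lower the luminescence signal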
[4] = cytotoxicity toward NIH3T3 fibroblasts, dose response, counter-screen, cell-based, ATP luminescence, mouse fibroblasts (AID 2010); assay type: functional;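 further: cells exposed to compound for about 90 hours before reading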
[5] = M. tuberculosis H37Rv growth inhibitors, H37Rv strain (AID 1626); assay type: functional
[6] = Vero cell cytotoxicity, dose response, cytotoxicity control for Vif-APOBEC3G degradation inhibitor project, Vero cells (AID 1117358); assay type: functional; conditions: Human immunodeficiency virus 1, Vero
[7] = molecular target: Voltage-gated inwardly rectifying potassium channel KCNH2 (Homo sapiens, UniProt Q12809); assay: hERG protection from proarrhythmic block, potency, dose response, cell-based, thallium flux (AID 2121); assay type: ADME
Chain of Voltage-gated inwardly rectifying potassium channel KCNH2 (Q12809 whole entry): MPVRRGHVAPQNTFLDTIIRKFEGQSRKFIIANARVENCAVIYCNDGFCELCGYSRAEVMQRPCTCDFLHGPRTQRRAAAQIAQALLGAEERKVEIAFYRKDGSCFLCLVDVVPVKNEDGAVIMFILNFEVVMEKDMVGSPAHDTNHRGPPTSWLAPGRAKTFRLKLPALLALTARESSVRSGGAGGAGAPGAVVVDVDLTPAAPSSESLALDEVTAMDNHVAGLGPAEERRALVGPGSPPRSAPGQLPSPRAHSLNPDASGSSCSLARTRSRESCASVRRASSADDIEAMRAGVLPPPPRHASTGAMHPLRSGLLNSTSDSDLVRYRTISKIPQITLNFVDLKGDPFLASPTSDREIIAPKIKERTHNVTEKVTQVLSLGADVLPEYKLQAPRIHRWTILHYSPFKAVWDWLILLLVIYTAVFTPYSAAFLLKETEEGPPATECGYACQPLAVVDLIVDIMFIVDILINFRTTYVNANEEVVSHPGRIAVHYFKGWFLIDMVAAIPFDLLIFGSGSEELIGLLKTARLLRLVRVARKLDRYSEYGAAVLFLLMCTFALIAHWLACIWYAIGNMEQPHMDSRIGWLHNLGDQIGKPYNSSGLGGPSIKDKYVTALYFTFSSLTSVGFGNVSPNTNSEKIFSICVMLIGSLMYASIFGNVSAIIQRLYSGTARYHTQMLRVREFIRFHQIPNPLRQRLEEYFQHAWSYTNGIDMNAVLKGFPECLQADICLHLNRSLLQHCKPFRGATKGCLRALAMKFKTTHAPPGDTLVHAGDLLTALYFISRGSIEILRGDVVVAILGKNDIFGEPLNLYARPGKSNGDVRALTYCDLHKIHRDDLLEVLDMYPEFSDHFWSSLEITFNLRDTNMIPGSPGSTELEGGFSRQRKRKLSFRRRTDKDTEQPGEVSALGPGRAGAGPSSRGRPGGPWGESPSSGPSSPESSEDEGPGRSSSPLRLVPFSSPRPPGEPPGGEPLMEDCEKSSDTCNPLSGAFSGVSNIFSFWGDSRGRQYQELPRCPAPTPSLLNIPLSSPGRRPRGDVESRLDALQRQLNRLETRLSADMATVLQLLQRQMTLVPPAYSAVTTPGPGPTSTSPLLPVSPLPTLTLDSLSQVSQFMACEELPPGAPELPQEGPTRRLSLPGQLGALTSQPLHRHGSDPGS

[8] = molecular target: T2, Caspase-6 (Homo sapiens, UniProt P55212); assay: human caspase-6 inhibitors, dose response, biochemical, VEID-R110 fluorescence, cherry-pick (AID 720632)
T2 sequence (P55212 whole entry): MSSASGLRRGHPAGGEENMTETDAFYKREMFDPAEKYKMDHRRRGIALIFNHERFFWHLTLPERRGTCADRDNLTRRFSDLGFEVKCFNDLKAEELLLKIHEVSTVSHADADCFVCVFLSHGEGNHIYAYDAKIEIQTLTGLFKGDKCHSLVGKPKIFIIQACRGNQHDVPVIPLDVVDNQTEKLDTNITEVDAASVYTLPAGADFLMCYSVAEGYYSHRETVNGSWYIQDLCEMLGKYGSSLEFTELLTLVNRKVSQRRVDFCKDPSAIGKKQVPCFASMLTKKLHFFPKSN

[9] = molecular target: T3, COUP transcription factor 2 (Homo sapiens, UniProt P24468); assay: Luminescence-based cell-based high throughput dose response assay to identify inhibitors of COUP-TFII (NR2F2).; assay type: functional;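 further: HEK293 cells transiently cotransfected with COUP-TFII expression vector and reporter; luciferase reporter luminescence driven by COUP-TFII from the pX2-168 reporter plasmid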
T3 sequence (P24468 whole entry): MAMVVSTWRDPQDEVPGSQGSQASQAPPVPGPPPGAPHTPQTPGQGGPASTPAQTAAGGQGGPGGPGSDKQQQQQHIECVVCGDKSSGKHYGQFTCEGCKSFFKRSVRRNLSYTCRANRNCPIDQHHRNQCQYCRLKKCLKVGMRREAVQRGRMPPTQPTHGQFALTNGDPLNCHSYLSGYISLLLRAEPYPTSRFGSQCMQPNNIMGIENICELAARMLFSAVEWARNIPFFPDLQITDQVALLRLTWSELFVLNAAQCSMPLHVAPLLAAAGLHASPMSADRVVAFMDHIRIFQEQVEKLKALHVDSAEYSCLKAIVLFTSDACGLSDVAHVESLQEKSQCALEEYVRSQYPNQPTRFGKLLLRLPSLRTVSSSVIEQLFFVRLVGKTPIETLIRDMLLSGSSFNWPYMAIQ

[10] = HepG2 cell cytotoxicity, dose response, cytotoxicity control for Shn3 inhibitor project, CellTiter-Glo, cherry-picked (AID 624134); assay type: functional, cell-based
[11] = Shn3 3'UTR reporter inhibitors, dose response, cell-based, Clone20 osteoblasts, firefly luciferase, cherry-picked (AID 624132); assay type: functional;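 further: firefly luciferase luminescence from reporter carrying the Shn3 3'UTR in osteoblasts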
[12] = molecular target: Protein Wnt-3a (Mus musculus, UniProt P27467); assay: Wnt3a-driven reporter signaling inhibition, dose response, selectivity assay for Gli-SUFU antagonist project, Wnt-LIGHT cells, luminescence (AID 651570); assay type: functional; conditions: read-out: IC50_Mean;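 further: Wnt-LIGHT reporter cells stimulated with conditioned medium from Wnt3a-producing cells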
Chain of Protein Wnt-3a (P27467 whole entry, the tested form may be a part): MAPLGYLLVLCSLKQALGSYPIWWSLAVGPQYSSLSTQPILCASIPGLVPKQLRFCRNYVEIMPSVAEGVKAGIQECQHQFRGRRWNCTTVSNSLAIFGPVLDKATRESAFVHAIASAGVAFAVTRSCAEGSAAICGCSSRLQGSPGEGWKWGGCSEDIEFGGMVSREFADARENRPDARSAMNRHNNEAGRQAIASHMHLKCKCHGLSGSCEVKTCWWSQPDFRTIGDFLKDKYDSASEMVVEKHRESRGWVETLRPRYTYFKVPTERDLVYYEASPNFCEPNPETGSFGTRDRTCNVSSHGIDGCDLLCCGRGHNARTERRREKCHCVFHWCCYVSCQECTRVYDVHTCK

[13] = molecular target: T4, Oxysterols receptor LXR-beta (Homo sapiens, UniProt P55055); assay: LXR agonists, Gal4 luciferase reporter, dose response, counter-screen for ssDAF-12 agonist project, cell-based, luminescence, HEK293, S. stercoralis campaign (AID 720737); assay type: functional; conditions: read-out: IC50 (the source's name)
T4 sequence (P55055 whole entry): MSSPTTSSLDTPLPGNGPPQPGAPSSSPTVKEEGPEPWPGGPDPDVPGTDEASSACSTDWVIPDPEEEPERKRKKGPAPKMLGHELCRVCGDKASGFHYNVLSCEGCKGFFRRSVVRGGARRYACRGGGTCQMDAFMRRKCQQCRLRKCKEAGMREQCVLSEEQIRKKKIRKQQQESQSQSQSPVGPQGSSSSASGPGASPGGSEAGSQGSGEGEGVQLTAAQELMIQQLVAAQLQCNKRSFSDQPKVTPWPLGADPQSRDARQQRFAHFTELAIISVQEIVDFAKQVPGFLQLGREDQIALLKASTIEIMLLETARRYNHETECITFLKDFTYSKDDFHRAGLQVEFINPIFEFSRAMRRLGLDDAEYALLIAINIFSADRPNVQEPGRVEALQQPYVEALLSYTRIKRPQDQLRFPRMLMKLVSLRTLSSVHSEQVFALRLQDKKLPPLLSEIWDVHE

[14] = Luminescence-based cell-based high throughput dose response assay to identify activators of the DAF-12 from the parasite S. stercoralis (ssDAF-12).; assay type: functional
[15] = molecular target: Disintegrin and metalloproteinase domain-containing protein 17 (Homo sapiens, UniProt P78536); assay: ADAM17 protease inhibitors, dose response, counter-screen for ADAM10 exosite inhibitor project, biochemical, quenched FRET substrate (AID 743253)
Chain of Disintegrin and metalloproteinase domain-containing protein 17 (P78536 whole entry, the tested form may be a part): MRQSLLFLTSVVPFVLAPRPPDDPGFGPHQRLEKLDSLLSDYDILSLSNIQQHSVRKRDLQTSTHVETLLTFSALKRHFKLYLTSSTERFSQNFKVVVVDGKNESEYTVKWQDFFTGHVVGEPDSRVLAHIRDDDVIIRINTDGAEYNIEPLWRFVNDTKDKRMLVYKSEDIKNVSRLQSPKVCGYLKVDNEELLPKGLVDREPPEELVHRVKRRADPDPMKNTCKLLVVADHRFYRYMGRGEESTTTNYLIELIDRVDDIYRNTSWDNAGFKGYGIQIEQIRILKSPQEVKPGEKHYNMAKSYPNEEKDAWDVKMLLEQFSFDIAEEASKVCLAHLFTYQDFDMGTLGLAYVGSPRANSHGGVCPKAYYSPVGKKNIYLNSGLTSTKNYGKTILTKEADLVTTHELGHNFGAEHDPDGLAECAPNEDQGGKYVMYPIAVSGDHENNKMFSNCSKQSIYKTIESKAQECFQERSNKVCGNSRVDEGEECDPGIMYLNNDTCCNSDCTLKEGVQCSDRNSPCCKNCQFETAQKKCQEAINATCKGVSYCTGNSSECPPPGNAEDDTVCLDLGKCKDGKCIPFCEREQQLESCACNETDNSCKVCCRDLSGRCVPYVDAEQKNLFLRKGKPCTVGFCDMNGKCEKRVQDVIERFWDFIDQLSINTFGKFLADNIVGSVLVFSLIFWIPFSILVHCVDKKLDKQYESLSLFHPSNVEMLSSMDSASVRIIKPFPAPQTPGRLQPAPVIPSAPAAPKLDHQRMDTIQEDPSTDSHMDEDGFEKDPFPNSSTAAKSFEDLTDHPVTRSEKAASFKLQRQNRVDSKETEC

[16] = molecular target: T5, Rac GTPase-activating protein 1 (Homo sapiens, UniProt Q9H0H5); assay: MgcRacGAP GTPase-activating activity inhibitors, confirmation, biochemical, ADP Hunter fluorescence, primary and confirmatory (AID 624330); assay type: functional
T5 sequence (Q9H0H5 whole entry): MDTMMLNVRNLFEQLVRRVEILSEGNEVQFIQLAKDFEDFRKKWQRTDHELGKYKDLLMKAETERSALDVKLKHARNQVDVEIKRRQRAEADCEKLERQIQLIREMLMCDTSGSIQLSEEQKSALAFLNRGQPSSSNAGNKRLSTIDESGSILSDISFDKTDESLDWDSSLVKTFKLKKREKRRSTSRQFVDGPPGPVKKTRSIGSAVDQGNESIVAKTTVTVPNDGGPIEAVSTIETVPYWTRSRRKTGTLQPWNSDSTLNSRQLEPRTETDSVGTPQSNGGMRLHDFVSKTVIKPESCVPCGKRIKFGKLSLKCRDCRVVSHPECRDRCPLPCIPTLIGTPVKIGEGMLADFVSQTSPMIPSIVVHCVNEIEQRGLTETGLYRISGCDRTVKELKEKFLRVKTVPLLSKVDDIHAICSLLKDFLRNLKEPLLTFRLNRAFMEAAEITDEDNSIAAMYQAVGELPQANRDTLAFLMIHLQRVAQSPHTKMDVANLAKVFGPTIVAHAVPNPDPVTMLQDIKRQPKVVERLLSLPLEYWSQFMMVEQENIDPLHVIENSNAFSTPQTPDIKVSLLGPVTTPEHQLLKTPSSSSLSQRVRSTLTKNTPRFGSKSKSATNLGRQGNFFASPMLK

[17] = molecular target: FAD-linked sulfhydryl oxidase ALR (Homo sapiens, UniProt P55789); assay: inhibitors of human ALR sulfhydryl oxidase, dose response, biochemical, H2O2 detection, luminescence, cherry-pick (AID 493248)
Chain of FAD-linked sulfhydryl oxidase ALR (P55789 whole entry): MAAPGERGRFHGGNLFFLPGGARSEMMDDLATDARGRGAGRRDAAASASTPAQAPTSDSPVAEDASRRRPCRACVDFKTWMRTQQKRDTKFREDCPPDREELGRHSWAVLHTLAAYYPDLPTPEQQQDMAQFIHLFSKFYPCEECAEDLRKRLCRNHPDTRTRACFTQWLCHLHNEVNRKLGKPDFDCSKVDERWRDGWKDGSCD

[18] = LGR2 antagonists, dose response, cell-based, HEK293, CRE-luciferase reporter, cherry pick, set 2 (AID 743343); assay type: functional;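 further: transfected cells were stimulated with diluted bursicon conditioned medium after compound addition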
[19] = A549 cell cytotoxicity, dose response, cytotoxicity control, plate reader, cherry-pick, antagonist series (AID 743412); assay type: functional, cell-based
[20] = HEK293 cell cytotoxicity, dose response, cytotoxicity control, plate reader, cherry-picked samples (AID 743446); assay type: functional, cell-based
[21] = MC4R antagonists, dose response, counter-screen for LGR2 antagonist project, cell-based, plate reader, cherry pick (AID 743444); assay type: functional;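 further: transfected HEK 293 cells stimulated with alpha-MSH peptide; potency of inhibitors of the alpha-MSH evoked signal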
[22] = P. falciparum Dd2 growth inhibitors, dose response, SYBR Green, cherry-picked samples (AID 1159567); assay type: functional, cell-based
[23] = HepG2 cell cytotoxicity, dose response, cytotoxicity control, cherry-picked samples (AID 1159577); assay type: functional, cell-based
[24] = control 3'UTR Renilla luciferase suppression, dose response, counter-screen for Shn3 inhibitor project, cell-based, Clone20-Shn3RL, cherry-picked (AID 624133); assay type: functional
[25] = Luminescence Cell-Based Dose Retest to Confirm Inhibitors of Cancer Stem Cells. [Related pubchem assays (depositor defined):AID2717, AID2721]; assay type: functional; conditions: Homo sapiens
[26] = test system: INS1; assay: beta cell apoptosis inhibitors, cytokine rescue, dose response, luminescence, retest (AID 449756); assay type: functional, cell-based; conditions: Rattus norvegicus;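 further: cell death triggered by IL-1 beta plus TNF-alpha plus IFN-gamma mixture; protective hits raise ATP signal compared with cytokine alone wells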
[27] = NIH-3T3 fibroblast cytotoxicity, dose response, cytotoxicity control, cell-based, fluorescence, Alamar Blue, secondary assay (AID 2327); assay type: functional;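 further: NIH-3T3 mouse fibroblasts cultured with fluconazole at 8 µg/mL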
[28] = test system: Streptococcus sp. 'group A'; assay: growth inhibition of control SK(-) GAS strain, dose response, counter-screen for streptokinase expression inhibitor project, luminescence, kanamycin, BacTiterGlo, confirmation (AID 1900); assay type: functional, organism-based
[29] = C. albicans growth with fluconazole, confirmation, fluorescence, retest (AID 2467); assay type: functional, cell-based
[30] = test system: Streptococcus; assay: Group A Streptococcus viability loss, dose response, counter-screen for streptokinase expression inhibitor project, luminescence, BacTiterGlo (AID 1915); assay type: functional, organism-based;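 further: potency for reduction of bacterial viability or growth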

COC(=O)c1[nH]c(C)c(C(=O)C2=C(O)C(=O)N(CCN3CCOCC3)C2c2cccnc2)c1C (stereo unspecified)
Ki [1]: 20.8 µM (inactive)

O=C(CCC1CCCN(Cc2cccc(Cl)c2)C1)NCc1ccccc1F (stereo unspecified)
EC50 [2]: 0.045 µM (active) | EC50 [3]: < 0.1 µM (active) | EC50 [4]: > 30 µM (not active)

Cc1nc(SCc2ccccc2F)c2oc3ccccc3c2n1
IC50 [5]: > 100 µM (active)

O=C(C1=C(O)C(=O)N(c2ncccn2)C1c1ccc(Cl)c(Cl)c1)c1ccco1 (stereo unspecified)
Ki [1]: > 66.7 µM (inactive)

c1ccc(-c2cc(-c3nnc4n3N=C(c3ccc5ccccc5c3)CS4)n[nH]2)cc1
CC50 [6]: > 40 µM (active) | EC50 [3]: 1.63 µM (active) | EC50 [4]: 7.45 µM (active)

Cc1ccc(NC(S)=NNc2ncc(C(F)(F)F)cc2Cl)cc1
CC50 [6]: > 40 µM (active)

C=C(C)CN=C(S)NN=C1c2ccccc2-c2ccccc21
EC50 [7]: 0.95 µM (active)

CC(C)(C)c1ccc(C(=O)Nn2c(CCC(=O)O)ccc2-c2cccs2)cc1
AC50 [8]: 45.1 µM (active)

O=C(Nc1nnc(Cc2c[nH]c3ccccc23)s1)c1ccc(Cl)cc1Cl
AC50 [8]: 49.2 µM (active)

CCOc1ccc(NC(=O)CSc2ccccc2N)cc1
IC50 [5]: > 100 µM (active)

Cc1ccc2nc(N(CCCN(C)C)C(=O)c3ccc(S(=O)(=O)N4CCOCC4)cc3)sc2c1
EC50 [2]: 0.007 µM (active) | EC50 [3]: < 0.1 µM (active) | EC50 [4]: 10.8 µM (active)

CC(=O)c1cccc(NS(=O)(=O)c2ccc(-c3cnc(C4CC4)o3)cc2)c1
IC50 [9]: 12.3 µM (inactive) | AC50 [10]: 47.3 µM (active) | AC50 [11]: 5 µM (active) | IC50 [12]: 6.03 µM (active)

COc1cc(-c2nnc(O)o2)cc(OC)c1OC
CC50 [6]: > 40 µM (active)

CC1=NN(C(=O)CCc2ccc3c(c2)OCO3)C(O)(C(F)(F)F)C1 (stereo unspecified)
EC50 [13]: > 67.5 µM (inactive) | IC50 [14]: > 67.5 µM (inactive)

COc1ccc(-c2ccc(-c3noc(-c4cccc(OC)c4)n3)c(OC)n2)cc1
IC50 [15]: > 69.5 µM (inactive)

CC(=O)N1CCN(c2ccc(N)cc2)CC1
IC50 [16]: 16.2 µM (active) | AC50 [17]: 1.06 µM (active) | AC50 [8]: 11.1 µM (active)

c1ccc(Cc2c(-c3ccco3)nc3c4ccccc4ccn23)cc1
EC50 [13]: > 67.5 µM (inactive) | IC50 [14]: > 67.5 µM (inactive)

Cc1cccc(-c2ccc([C@H]3[C@@H](CO)N4CCCCN(C(=O)c5ccncc5)C[C@@H]34)cc2)c1
AC50 [18]: 8.82 µM (active) | AC50 [19]: > 52 µM (inactive) | AC50 [20]: > 52 µM (inactive) | AC50 [21]: 9.6 µM (active)

Cc1ccc(/C=N/Nc2ccc(C(=O)O)cc2)o1
AC50 [17]: 2.79 µM (active) | EC50 [7]: 11 µM (active)

Cc1ccc(-c2ccc([C@@H]3[C@H](CO)N4CCCCN(S(=O)(=O)c5ccccc5C)C[C@@H]34)cc2)cc1
AC50 [22]: 0.589 µM (active) | AC50 [23]: 11 µM (active)

CCC(=O)N1[C@H](CO)[C@H](c2ccc(C3=CCCC3)cc2)[C@H]1CNC1CCCC1
AC50 [22]: 5.63 µM (active) | AC50 [23]: > 42 µM (inactive)

Oc1ccc(CCNc2ncnc3ccc(Cl)cc23)cc1
IC50 [9]: 5.5 µM (active) | AC50 [24]: 0.942 µM (active) | AC50 [10]: 43 µM (active) | AC50 [11]: 0.551 µM (active) | AC50 [25]: 1.57 µM (active) | AC50 [26]: 3.73 µM (active)

CC(C)(C)c1ccc(C(=O)CC(=O)c2cc(Cl)ccc2O)cc1
EC50 [27]: 136 µM (active) | EC50 [7]: 6.61 µM (active) | EC50 [28]: 0.192 µM (active) | EC50 [29]: 1.9 µM (active) | EC50 [30]: 2.68 µM (active)
